According to PubChem BioAssay (NCI):
Where “and” joins values, the source holds several entries; their conditions need not be identical. Equal entries are not always repeated.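 Growth conditions: 96-well plates. Treatment: test compound, 48 hours, 5 concentrations. Analysis: linear interpolation between bracketing concentrations; unreached endpoints set to highest concentration. GI50 marks 50% less growth. TGI: total growth inhibition.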

What was measured:
Assay in all cases: growth of human tumour cells (NCI), 48 h
CAKI-1 renal = test system: CAKI-1 renal
K-562 leukemia = test system: K-562 leukemia
KM12 colon = test system: KM12 colon
IGROV1 ovarian = test system: IGROV1 ovarian
MOLT-4 leukemia = test system: MOLT-4 leukemia
NCI/ADR-RES ovarian = test system: NCI/ADR-RES ovarian
PC-3 prostate = test system: PC-3 prostate
MDA-MB-435 = test system: MDA-MB-435
HOP-92 NSCLC = test system: HOP-92 NSCLC
A549 NSCLC = test system: A549 NSCLC

SMILES	GI50 (CAKI-1 renal)	TGI (CAKI-1 renal)	GI50 (K-562 leukemia)	TGI (K-562 leukemia)	GI50 (KM12 colon)	TGI (KM12 colon)	GI50 (IGROV1 ovarian)	TGI (IGROV1 ovarian)	GI50 (MOLT-4 leukemia)	TGI (MOLT-4 leukemia)	GI50 (NCI/ADR-RES ovarian)	TGI (NCI/ADR-RES ovarian)	GI50 (PC-3 prostate)	TGI (PC-3 prostate)	GI50 (MDA-MB-435)	TGI (MDA-MB-435)	GI50 (HOP-92 NSCLC)	TGI (HOP-92 NSCLC)	GI50 (A549 NSCLC)	TGI (A549 NSCLC)
CC(C)NCCCCCNc1cc(O)cc2cccnc12	> 100 µM	> 100 µM	> 100 µM	> 100 µM	> 100 µM	> 100 µM	4.81 µM	> 100 µM	> 77.8 µM	> 100 µM	> 100 µM	> 100 µM	> 100 µM	> 100 µM	> 100 µM	> 100 µM	6.89 µM	> 100 µM	> 100 µM	> 100 µM
CCCC(=O)Nc1ncnc2c1ncn2C1OC2COP(=O)(O)OC2C1OC(=O)CCC (stereo not drawn)	> 1000 µM	> 1000 µM	> 1000 µM	> 1000 µM	> 1000 µM	> 1000 µM	> 1000 µM		> 1000 µM	> 1000 µM	> 1000 µM	> 1000 µM	> 1000 µM	> 1000 µM	> 1000 µM	> 1000 µM		> 1000 µM	> 1000 µM	> 1000 µM
CCCN(CCC)c1ccc(/C=N/NC(=O)c2cccnc2)cc1	30.1 µM	> 100 µM	8.02 µM	> 100 µM	20.3 µM	> 100 µM	46.8 µM	> 100 µM	31 µM	> 100 µM	18 µM	> 100 µM	29.5 µM	> 100 µM	3.63 µM	> 100 µM	20.3 µM	64.8 µM	27.5 µM	> 100 µM
COc1ccc(NC(=O)CC(=O)n2nc(-c3ccccc3)c(N=Nc3ccccc3C)c2-c2ccccc2)cc1		> 64.8 µM		> 100 µM		> 100 µM		46.2 µM		> 100 µM		> 100 µM		32.8 µM		> 100 µM		34.9 µM		41.7 µM
CCNC(=O)c1ccc2c(c1)nc(-c1ccc(Cl)cc1)n2-c1cc(C(C)(C)C)[nH]n1	2.84 µM	46.6 µM	3.35 µM	16.8 µM	3.12 µM	36.8 µM	5.22 µM	64.8 µM	3.49 µM	25.1 µM	2.54 µM	9.33 µM	2.87 µM	48.8 µM	1.09 µM	5.35 µM	1.36 µM	7.77 µM	3.19 µM	31.9 µM
NCC(=O)NC(CO)C(=O)O (stereo not drawn)		> 100 µM		> 100 µM		> 100 µM		> 100 µM		> 100 µM		> 100 µM		> 100 µM		> 100 µM		> 100 µM		> 100 µM
COc1cccc2cc(-c3nc(C4CCC(C(=O)O)CC4)n4ncnc(N)c34)[nH]c12 (stereo not drawn)	0.33 µM and 0.326 µM	2.79 µM and 3.99 µM	0.499 µM and 2.63 µM	> 100 µM	0.33 µM and 0.59 µM	> 100 µM	0.192 µM and 0.237 µM	1.68 µM and 1.97 µM	0.4 µM and 0.767 µM	> 40.8 µM	0.406 µM and 0.804 µM	10.3 µM and > 10 µM	0.129 µM and 0.342 µM	2.03 µM and 4.42 µM	0.288 µM and 0.531 µM	3.08 µM and 6.84 µM	0.0158 µM and 0.0327 µM	0.0988 µM and 0.358 µM	1.21 µM and 1.97 µM	11.8 µM and > 10 µM
C=CCCC(O)c1ccc(CCCCCCCCCCC)o1 (stereo not drawn)	16 µM	31.5 µM	38.6 µM	> 100 µM	20.6 µM	51 µM	16.5 µM	32 µM	29.9 µM	> 100 µM	18.9 µM	35.5 µM	18.8 µM	36.6 µM	16.7 µM	35.3 µM	18.2 µM	35.9 µM	18.6 µM	35.1 µM
O=[N+]([O-])c1ccc(NN=C2c3ccccc3Cc3ccccc32)c([N+](=O)[O-])c1		> 100 µM		> 100 µM		79.9 µM		> 100 µM		> 100 µM		> 100 µM		> 100 µM		5.8 µM		> 100 µM		> 100 µM
COc1cc(/C=N/Nc2ncnc3c2cnn3Cc2ccccc2)ccc1O	> 19.9 µM	> 25 µM	> 6.57 µM	> 25 µM	7.68 µM	> 25 µM	14.8 µM	> 25 µM	> 25 µM	> 25 µM	7.35 µM	> 25 µM	11.7 µM	> 25 µM	> 23.1 µM	> 25 µM	0.83 µM	8.86 µM	8.69 µM	> 23.9 µM
CC(=O)Nc1ccc(S(=O)(=O)c2ccc(NC(C)=O)cc2)cc1	> 100 µM	> 100 µM	> 100 µM	> 100 µM	> 100 µM	> 100 µM	> 100 µM	> 100 µM	> 100 µM	> 100 µM	> 100 µM	> 100 µM	> 100 µM	> 100 µM	> 100 µM	> 100 µM	> 100 µM	> 100 µM	> 100 µM	> 100 µM
COc1cc(C(=O)Nc2cc(O)c(C/C=C(\C)CCC=C(C)C)c(O)c2)cc2c1O[C@]1(C)CC[C@@H](O)C(C)(C)[C@H]1C2	0.0394 µM	11.9 µM	0.0359 µM and 0.0659 µM	2.17 µM and 2.6 µM	2.39 µM and 1.52 µM	12.8 µM	3.37 µM and 0.881 µM	19.5 µM	0.0298 µM	1.54 µM	9.22 µM and 6.62 µM	> 76.4 µM	0.0302 µM and 0.0463 µM	17.8 µM	0.325 µM and 1.26 µM	13 µM	0.237 µM and 0.173 µM	8.13 µM and 4.79 µM	0.381 µM and 0.214 µM	13.9 µM
O=C1C(Cl)=C(Nc2ccccn2)C(=O)c2ccccc21	3.82 µM	18.8 µM	1.92 µM	5.42 µM	3.45 µM	10.8 µM	3.04 µM	8.05 µM	2.79 µM	6.6 µM	3.23 µM	17.2 µM	2.27 µM	8.35 µM	2.02 µM	3.96 µM	3.17 µM	9.84 µM	9.02 µM	37 µM
